# Measured values as given in patent publication US20160168540A1, “COMPOSITION FOR MAINTAINING PLATELET FUNCTION” (KYOTO UNIVERSITY, priority 2013, published 2016).
# Target: T1, TACE (ADAM17) (Homo sapiens, UniProt P78536)
# T1 construct: made in house; host or cells: mammalian cells or insect cells
# Assay: TACE (ADAM17) inhibition test
# Assay type: biochemical
# Conditions: fluorescent synthetic substrate, 37° C. for 1.5 hours; read-out: TACE IC50
# Description: The nucleotide sequence of TACE has been reported by Moss et al. (Moss, M. L. et al., Nature 1997, vol. 385, pp. 733-736). Based on this information, the cDNA of TACE was obtained according to the prescribed method from THP-1 cells or the like, and then incorporated the cDNA into an expression vector. Next, this vector was transformed into mammalian cells or insect cells, and TACE protein was expressed. The TACE protein was isolated, and used as an enzyme. Further, a fluorescent synthetic substrate Nma(N-methylanthranilic acid)-Leu-Ala-Gln-Ala-Val-Arg-Ser-Ser-Lys(Dnp(dinitrophenyl))-D-Arg-NH2 including the TACE-cleaved sequence of a membrane-bound TNF was used as a substrate. The enzyme reaction was carried out by adding 1.8 μL of a solution of the test substance to 90 μL of a fluorescent synthetic substrate prepared with an assay buffer B (50 mM tris-hydrochloric acid buffer (pH 7.5) including 200 mM sodium chloride, 5 mM calcium chloride, 10 μM zinc sulfate, and 0.05% PLURONIC F-68), then mixing 90 μL of a TACE enzyme solution prepared with an assay buffer A (50 mM tris-hydrochloric acid buffer (pH 7.5) including 200 mM sodium chloride, 5 mM calcium chloride, 10 μM zinc sulfate, and 2 mg/mL bovine serum albumin) and reacting at 37° C. for 1.5 hours. Enzyme activity was then determined by measuring with a fluorescence intensity meter (Labsystems, Fluoroskan Ascent) at an excitation wavelength of 355 nm and a measurement wavelength of 460 nm. The 50% inhibitory concentration (IC50) of the test substances was calculated by comparing enzyme activity in the presence and the absence of the test substance to determine the inhibition rate. Further, test substances having an IC50 strength of less than 100 nM were evaluated as “A”, and test substances having an IC50 strength of 100 nM or more were evaluated as “B”.
# T1 sequence (P78536 215-824): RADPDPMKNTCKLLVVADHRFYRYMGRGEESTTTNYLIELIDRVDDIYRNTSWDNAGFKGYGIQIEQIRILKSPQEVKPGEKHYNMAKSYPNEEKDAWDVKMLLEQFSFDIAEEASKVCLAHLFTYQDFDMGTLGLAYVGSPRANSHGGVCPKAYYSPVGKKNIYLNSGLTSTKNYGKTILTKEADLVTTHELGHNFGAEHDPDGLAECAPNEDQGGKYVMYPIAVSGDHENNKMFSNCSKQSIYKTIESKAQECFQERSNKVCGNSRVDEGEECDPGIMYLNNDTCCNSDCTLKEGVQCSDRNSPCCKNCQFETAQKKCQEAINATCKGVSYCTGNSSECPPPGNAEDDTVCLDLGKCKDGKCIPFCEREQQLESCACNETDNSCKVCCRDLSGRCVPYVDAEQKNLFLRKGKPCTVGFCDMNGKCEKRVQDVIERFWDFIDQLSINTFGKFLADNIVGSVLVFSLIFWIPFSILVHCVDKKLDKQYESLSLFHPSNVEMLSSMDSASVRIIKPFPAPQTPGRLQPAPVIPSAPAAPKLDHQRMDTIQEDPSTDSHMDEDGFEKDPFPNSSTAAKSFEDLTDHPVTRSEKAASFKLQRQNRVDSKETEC
row,IC50,Compound
1,< 0.1 µM,"Cc1cccn(CC2(c3ccc(Oc4ccccc4)cc3)NC(=O)NC2=O)c1=O (racemic) [Compound I-9, 5-[(3-methyl-2-oxopyridin-1(2H)-yl)methyl]-5-(4-phenoxyphenyl)imidazolidine-2,4-dione]"
2,< 0.1 µM,Cc1cccn(CC2(c3ccc(Cc4ccc(Cl)cc4)cc3)NC(=O)NC2=O)c1=O (racemic) [Compound I-130]
3,< 0.1 µM,Cc1cccn(CC2(c3cccc(-c4ccccn4)c3)NC(=O)NC2=O)c1=O (racemic) [Compound I-94]
4,< 0.1 µM,Cc1cccn(CC2(c3ccc(-c4ccccn4)cc3)NC(=O)NC2=O)c1=O (racemic) [Compound I-92]
5,< 0.1 µM,"COc1ccc(Cl)cc1C1(Cn2cccc(C)c2=O)NC(=O)NC1=O (racemic) [Compound I-27, 5-(5-chloro-2-methoxyphenyl)-5-[(3-methyl-2-oxopyridin-1(2H)-yl)methyl]imidazolidine-2,4-dione]"
6,< 0.1 µM,"Cc1cc(C2(Cn3cccc(C)c3=O)NC(=O)NC2=O)ccc1F (racemic) [Compound I-30, 5-(4-fluoro-3-methylphenyl)-5-[(3-methyl-2-oxopyridin-1(2H)-yl)methyl]imidazolidine-2,4-dione]"
7,< 0.1 µM,"COc1ccc(C2(Cn3cccc(C)c3=O)NC(=O)NC2=O)cc1F (racemic) [Compound I-14, 5-(3-fluoro-4-methoxyphenyl)-5-[(3-methyl-2-oxopyridin-1(2H)-yl)methyl]imidazolidine-2,4-dione]"
8,< 0.1 µM,Cc1cccn(CC2(c3ccc(OCc4ccc(F)cc4)cc3)NC(=O)NC2=O)c1=O (racemic) [Compound I-88]
9,< 0.1 µM,"Cc1cccn(CC2(c3ccc(F)cc3)NC(=O)NC2=O)c1=O (racemic) [Compound I-15, 5-(4-fluorophenyl)-5-[(3-methyl-2-oxopyridin-1(2H)-yl)methyl]imidazolidine-2,4-dione]"
10,≥ 0.1 µM,COc1cc(C)c(Cl)cc1C1(Cn2cccc(C)c2=O)NC(=O)NC1=O (racemic) [Compound I-70]
11,< 0.1 µM,COc1ccc(C2(Cn3cccc(C(F)(F)F)c3=O)NC(=O)NC2=O)cc1 (racemic) [Compound I-141]
12,< 0.1 µM,Cc1cccn(CC2(c3ccc(Sc4ccccc4)cc3)NC(=O)NC2=O)c1=O (racemic) [Compound I-102]
13,< 0.1 µM,O=C1NC(=O)C(Cn2cccc(Cl)c2=O)(c2ccc(Cc3ccccc3)cc2)N1 (racemic) [Compound I-150]
14,< 0.1 µM,"COc1ccc(C2(Cn3cccc(Br)c3=O)NC(=O)NC2=O)cc1 (racemic) [Compound I-52, 5-[(3-bromo-2-oxopyridin-1(2H)-yl)methyl]-5-(4-methoxyphenyl)imidazolidine-2,4-dione]"
15,< 0.1 µM,Cc1cccn(CC2(c3ccc(CCc4ccccc4)cc3)NC(=O)NC2=O)c1=O (racemic) [Compound I-107]
16,< 0.1 µM,Cc1ccc(C2(Cn3cccc(C)c3=O)NC(=O)NC2=O)c(F)c1F (racemic) [Compound I-128]
17,< 0.1 µM,O=C1NC(=O)C(Cn2cccc(Br)c2=O)(c2ccc(Cc3ccccc3)cc2)N1 (racemic) [Compound I-149]
18,< 0.1 µM,"Cc1cccn(CC2(c3ccc(S(C)(=O)=O)cc3)NC(=O)NC2=O)c1=O (racemic) [Compound I-25, 5-[(3-methyl-2-oxopyridin-1(2H)-yl)methyl]-5-[4-(methylsulfonyl)phenyl]imidazolidine-2,4-dione]"
19,< 0.1 µM,Cc1cccn(CC2(c3ccc(Cl)c(Cl)c3)NC(=O)NC2=O)c1=O (racemic) [Compound I-125]
20,< 0.1 µM,Cc1cccn(CC2(c3ccc(Oc4ccc(F)cc4F)cc3)NC(=O)NC2=O)c1=O (racemic) [Compound I-97]
21,≥ 0.1 µM,O=C1NC(=O)C(Cn2cccc(F)c2=O)(c2ccc(Cc3ccccc3)cc2)N1 (racemic) [Compound I-152]
22,< 0.1 µM,COc1ccc(-c2ccc(C3(Cn4cccc(C)c4=O)NC(=O)NC3=O)cc2)cc1 (racemic) [Compound I-72]
23,< 0.1 µM,Cc1cccn(CC2(c3ccc(Oc4cccc(C(F)(F)F)c4)cc3)NC(=O)NC2=O)c1=O (racemic) [Compound I-100]
24,< 0.1 µM,O=C1NC(=O)C(Cn2cccc(Cl)c2=O)(c2ccc(F)cc2)N1 (racemic) [Compound I-136]
25,< 0.1 µM,Cc1cccn(CC2(c3ccc(OC(C)C)cc3)NC(=O)NC2=O)c1=O (racemic) [Compound I-120]

row,IC50,Compound
1,< 0.1 µM,COc1ccc(F)cc1C1(Cn2cccc(C)c2=O)NC(=O)NC1=O (racemic) [Compound I-69]
2,< 0.1 µM,N#Cc1ccc(C2(Cn3cccc(C(F)(F)F)c3=O)NC(=O)NC2=O)cc1 (racemic) [Compound I-142]
3,< 0.1 µM,Cc1noc(C)c1-c1ccc(C2(Cn3cccc(C)c3=O)NC(=O)NC2=O)cc1 (racemic) [Compound I-90]
4,≥ 0.1 µM,O=C1NC(=O)C(Cn2cccc(CO)c2=O)(c2ccc(F)c(F)c2)N1 (racemic) [Compound I-148]
5,< 0.1 µM,Cc1cccn(CC2(c3ccc(F)c(Cl)c3)NC(=O)NC2=O)c1=O (racemic) [Compound I-126]
6,< 0.1 µM,"Cc1cccn(CC2(c3ccc(F)c(F)c3)NC(=O)NC2=O)c1=O (racemic) [Compound I-10, 5-(3,4-difluorophenyl)-5-[(3-methyl-2-oxopyridin-1(2H)-yl)methyl]imidazolidine-2,4-dione]"
7,< 0.1 µM,COc1ccc(C2(Cn3cccc(Cl)c3=O)NC(=O)NC2=O)cc1 (racemic) [Compound I-137]
8,< 0.1 µM,"Cc1cccn(CC2(c3ccc(-c4nn[nH]n4)cc3)NC(=O)NC2=O)c1=O (racemic) [Compound I-42, 5-[4-(2H-tetrazol-5-yl)phenyl]-5-[(3-methyl-2-oxopyridin-1(2H)-yl)methyl]imidazolidine-2,4-dione]"
9,< 0.1 µM,Cc1cccn(CC2(c3ccc4c(c3)OCCO4)NC(=O)NC2=O)c1=O (racemic) [Compound I-59]
10,< 0.1 µM,Cc1cccn(CC2(c3ccc(CCc4ccccn4)cc3)NC(=O)NC2=O)c1=O (racemic) [Compound I-115]
11,≥ 0.1 µM,COc1cccn(CC2(c3ccccc3)NC(=O)NC2=O)c1=O (racemic) [Compound I-143]
12,< 0.1 µM,Cc1cccn(CC2(c3ccc(Oc4ccccc4F)c(F)c3)NC(=O)NC2=O)c1=O (racemic) [Compound I-104]
13,< 0.1 µM,Cc1cccn(CC2(c3ccc(Oc4cccnc4)c(F)c3)NC(=O)NC2=O)c1=O (racemic) [Compound I-122]
14,< 0.1 µM,"Cc1cccn(CC2(c3ccc4sccc4c3)NC(=O)NC2=O)c1=O (racemic) [Compound I-23, 5-(benzo[b]thiophen-5-yl)-5-[(3-methyl-2-oxopyridin-1(2H)-yl)methyl]imidazolidine-2,4-dione]"
15,< 0.1 µM,Cc1cccn(CC2(c3ccc(Oc4ccccc4F)cc3)NC(=O)NC2=O)c1=O (racemic) [Compound I-86]
16,< 0.1 µM,"COc1cc(F)ccc1C1(Cn2cccc(C)c2=O)NC(=O)NC1=O (racemic) [Compound I-21, 5-(4-fluoro-2-methoxyphenyl)-5-[(3-methyl-2-oxopyridin-1(2H)-yl)methyl]imidazolidine-2,4-dione]"
17,< 0.1 µM,Cc1cccn(CC2(c3ccc(OCc4ccccc4)cc3)NC(=O)NC2=O)c1=O (racemic) [Compound I-64]
18,< 0.1 µM,"Cc1cc(C2(Cn3cccc(C)c3=O)NC(=O)NC2=O)ccc1OC1CCCC1 (racemic) [Compound I-39, 5-[4-(cyclopentyloxy)-3-methylphenyl]-5-[(3-methyl-2-oxopyridin-1(2H)-yl)methyl]imidazolidine-2,4-dione]"
19,< 0.1 µM,"C=Cc1ccc(C2(Cn3cccc(C)c3=O)NC(=O)NC2=O)cc1 (racemic) [Compound I-43, 5-[(3-methyl-2-oxopyridin-1(2H)-yl)methyl]-5-(4-vinylphenyl)imidazolidine-2,4-dione]"
20,≥ 0.1 µM,"COc1ccc(OC(F)(F)F)cc1C1(Cn2cccc(C)c2=O)NC(=O)NC1=O (racemic) [Compound I-24, 5-[2-methoxy-5-(trifluoromethoxy)phenyl]-5-[(3-methyl-2-oxopyridin-1(2H)-yl)methyl]imidazolidine-2,4-dione]"
21,≥ 0.1 µM,COc1ccccc1C1(Cn2cccc(C)c2=O)NC(=O)NC1=O (racemic) [Compound I-60]
22,< 0.1 µM,"CCCc1ccc(C2(Cn3cccc(C)c3=O)NC(=O)NC2=O)cc1 (racemic) [Compound I-45, 5-[(3-methyl-2-oxopyridin-1(2H)-yl)methyl]-5-(4-propylphenyl)imidazolidine-2,4-dione]"
23,< 0.1 µM,"COc1cccc(C2(Cn3cccc(C)c3=O)NC(=O)NC2=O)c1 (racemic) [Compound I-4, 5-(3-methoxyphenyl)-5-[(3-methyl-2-oxopyridin-1(2H)-yl)methyl]imidazolidine-2,4-dione]"
24,< 0.1 µM,C=C(C)c1ccc(C2(Cn3cccc(C)c3=O)NC(=O)NC2=O)cc1 (racemic) [Compound I-108]
